In patent US10179802B2 (priority 2014, dated 2019):

System: HVA calcium channel
Assay type: cell-based, rat

In the case of COC(=O)C1=C(C)NC(C)=C(C(=O)OC)C1c1ccccc1[N+](=O)[O-] [Nifedipine], the current after loading is reported as −734.31 pA, the current before loading is reported as −1471.35 pA and the inhibition rate (10 µM) is reported as 50.09%.
